Data on ten compounds can be found in PMC8003321, “5-Aryl-1-Arylideneamino-1H-Imidazole-2(3H)-Thiones: Synthesis and In Vitro Anticancer Evaluation” (Molecules, 2021).

The subject of series [1] is HepG2 (hepatocellular carcinoma cell line). The series can be described thus: MTT cytotoxicity assay, HepG2. It is filed as cell-based. Particulars: Homo sapiens, HepG2, 24 h, 24 h treatment, mean of three experiments. The protocol: (§1) The effect of imidazole molecules 4a–e and 5 on the viability of three cancer cell lines were studied using the MTT assay. The cytotoxicity was assessed using Docetaxel (DOC) as a standard antitumor drug. The three cancer cell lines were MCF-7 (breast cancer cell line), colon carcinoma (HCT-116), and HepG2 (hepatocellular carcinoma cell line). […] Moreover, the safety of compounds 4d and 5 was assessed against a normal breast cell line (MCF-10A) using the MTT assay.
(§2) Antitumor activity of the newly prepared imidazole compounds 4a–e and 5 were carried out against MCF-7, HepG2, HCT-116, and MCF-10A using the MTT assay method. Cells at a density of 1 × 10^4 were seeded in 96-well plates at 37 °C for 48 h under 5% CO2. After incubation, the cells were treated with different concentrations of the prepared molecules and incubated for 24 h. MTT dye was added at the end of 24 h of drug treatment and incubated for 4 h at 37 °C. Next, 100 µL of dimethyl sulfoxide was added to each well to dissolve the purple formazan formed. The color intensity of the formazan product, which represents the growth condition of the cells, is quantified using an ELISA plate reader at 570 nm. The experimental conditions were carried out with at least three replicates and the experiments were repeated at least three times.
For orientation: Tetrazolium dyes change colour on reduction, which living cells bring about.

Series [2] deals with MCF-7 (breast cancer cell line). The series can be described thus: MTT cytotoxicity assay, MCF-7. It is filed as cell-based. The following applies: Homo sapiens, MCF7, 24 h, 24 h treatment, mean of three experiments. The protocol: as §1, §2
The test system of series [3] is colon carcinoma (HCT-116). The series can be described thus: MTT cytotoxicity assay, HCT-116. It is filed as cell-based. The following applies: 24 h treatment, mean of three experiments. The protocol:
as §1, §2

Series [4] relates to normal breast cell line (MCF-10A). The series can be described thus: MTT cytotoxicity assay, normal breast cell line MCF-10A. In kind it is cell-based. Particulars: for IC50: Homo sapiens, MCF-10A, 24 h treatment. The protocol: as §1, §2
For a further series, the system named is MCF-7 cell line. Details: method as in PMID 32757353. Particulars: read-out: IC50 against MCF-7 cell line; cited from earlier work.
For the next series, the target named is T1, human VEGFR-2 (Homo sapiens, UniProt P35968).
T1 construct: purchased
The series can be described thus: In vitro VEGFR-2 kinase assay (ELISA). It is filed as biochemical. Particulars: n = 3, read-out: IC50 against VEGFR-2 kinase (converted). The protocol: To investigate the possible molecular mechanism underlying the potent anticancer activity of compounds 4d and 5. Their inhibitory activity against VEGFR-2 kinase was determined using an ELISA assay.
A total of 100 µL of standard solution and tested molecules were pipetted into the 96-wells and VEGFR-2 was bound to the wells by the immobilized antibody. The wells were washed and biotinylated antihuman VEGFR-2 antibody was added. After washing away unbound biotinylated antibody, 100 µL of conjugated streptavidin solution was pipetted into the wells. After washing, 100 µL of TMB substrate solution was added to the wells for 30 min at 37 °C. Stop solution (50 µL) was added, and the intensity of the color was measured immediately at 450 nm.

The subject of series [5] is MCF-7 cells. Nature of the series: Annexin V-FITC/PI apoptosis induction analysis. The following applies: MCF-7, compound at its IC50, 48 h; for percent of early apoptosis: lower right quadrant, control 0.43%; for percent of late apoptosis: upper right quadrant, control 0.23%. In kind it is cell-based. The protocol:
Several imidazole molecules have been reported in the literature as apoptosis inducers in several tumor cell lines. To evaluate the mode of cell death induced by compounds 4d and 5, Annexin V/FITC and propidium iodide (PI) assays were performed. MCF-7 cells were treated with compounds 4d and 5 at their IC50 concentration dose value for 48 h.
Apoptosis in MCF-7 cells was investigated using fluorescent Annexin V-FITC/PI detection kit by flow cytometry assay. Briefly, MCF-7 cells (2 × 10^5) after incubation for 12 h. Cells were treated with compounds 4d and 5 at their IC50 concentration for 48 h, then the cells were harvested and stained with Annexin V-FITC/PI dye for 15 min in the dark at 37 °C. Flow cytometry analyses were performed using a FACS Calibur flow cytometer (Becton and Dickinson, Heidelberg, Germany).

Another series deals with T2, B-Raf^V600E (Homo sapiens, UniProt P15056, V600E).
T2 construct: purchased
The series can be described thus: In vitro B-Raf kinase assay (ELISA). In kind it is biochemical. Particulars: n = 3, read-out: IC50 against B-Raf^V600E (converted). The protocol:
Raf is a protein kinase that initiates a cascade of other protein kinases by acting on the protein kinases MEK-1 and MEK-2 [21].
Next, 100 µL of standard solution and tested molecules were pipetted into the 96-wells and B-RAF was bound to the wells by the immobilized antibody. The wells were washed and biotinylated antihuman B-Raf antibody was added. After washing away unbound biotinylated antibody, 100 µL of conjugated streptavidin solution was pipetted into the wells. After washing, 100 µL of TMB substrate solution was added to the wells for 30 min at 37 °C. Stop solution (50 µL) was added, and the intensity of the color is measured immediately at 450 nm.

Series [6] has as its system MCF-7 cells. Nature of the series: Cell cycle analysis by DNA flow cytometry. In kind it is cell-based. Particulars: MCF-7, compound at its IC50, 48 h; for percentage of cells at pre-G1 phase: control 1.61%; for percentage of cell population at the G2/M phase: control 8.79%. The protocol:
Therefore, it can be concluded that compounds 4d and 5 inhibit the cell proliferation of MCF-7 cells via cell cycle arrest at the G2/M phase and induction of apoptosis (Figure 2).
MCF-7 cells (2 × 10^5/well) were harvested and washed twice in PBS. After that, cells were incubated at 37 °C and 5% CO2. The medium was replaced with DMSO (1% v/v) containing the tested compounds, then incubated for 48 h, washed twice in PBS, fixed with 70% ethanol, rinsed again with PBS, and then stained with DNA fluorochrome PI for 15 min at 37 °C. DNA content was analyzed by flow cytometry on a FACS Calibur flow cytometer (Becton and Dickinson, Heidelberg, Germany).
In general terms: A flow cytometer gives signals particle by particle.

T1 sequence (P35968 20-1356): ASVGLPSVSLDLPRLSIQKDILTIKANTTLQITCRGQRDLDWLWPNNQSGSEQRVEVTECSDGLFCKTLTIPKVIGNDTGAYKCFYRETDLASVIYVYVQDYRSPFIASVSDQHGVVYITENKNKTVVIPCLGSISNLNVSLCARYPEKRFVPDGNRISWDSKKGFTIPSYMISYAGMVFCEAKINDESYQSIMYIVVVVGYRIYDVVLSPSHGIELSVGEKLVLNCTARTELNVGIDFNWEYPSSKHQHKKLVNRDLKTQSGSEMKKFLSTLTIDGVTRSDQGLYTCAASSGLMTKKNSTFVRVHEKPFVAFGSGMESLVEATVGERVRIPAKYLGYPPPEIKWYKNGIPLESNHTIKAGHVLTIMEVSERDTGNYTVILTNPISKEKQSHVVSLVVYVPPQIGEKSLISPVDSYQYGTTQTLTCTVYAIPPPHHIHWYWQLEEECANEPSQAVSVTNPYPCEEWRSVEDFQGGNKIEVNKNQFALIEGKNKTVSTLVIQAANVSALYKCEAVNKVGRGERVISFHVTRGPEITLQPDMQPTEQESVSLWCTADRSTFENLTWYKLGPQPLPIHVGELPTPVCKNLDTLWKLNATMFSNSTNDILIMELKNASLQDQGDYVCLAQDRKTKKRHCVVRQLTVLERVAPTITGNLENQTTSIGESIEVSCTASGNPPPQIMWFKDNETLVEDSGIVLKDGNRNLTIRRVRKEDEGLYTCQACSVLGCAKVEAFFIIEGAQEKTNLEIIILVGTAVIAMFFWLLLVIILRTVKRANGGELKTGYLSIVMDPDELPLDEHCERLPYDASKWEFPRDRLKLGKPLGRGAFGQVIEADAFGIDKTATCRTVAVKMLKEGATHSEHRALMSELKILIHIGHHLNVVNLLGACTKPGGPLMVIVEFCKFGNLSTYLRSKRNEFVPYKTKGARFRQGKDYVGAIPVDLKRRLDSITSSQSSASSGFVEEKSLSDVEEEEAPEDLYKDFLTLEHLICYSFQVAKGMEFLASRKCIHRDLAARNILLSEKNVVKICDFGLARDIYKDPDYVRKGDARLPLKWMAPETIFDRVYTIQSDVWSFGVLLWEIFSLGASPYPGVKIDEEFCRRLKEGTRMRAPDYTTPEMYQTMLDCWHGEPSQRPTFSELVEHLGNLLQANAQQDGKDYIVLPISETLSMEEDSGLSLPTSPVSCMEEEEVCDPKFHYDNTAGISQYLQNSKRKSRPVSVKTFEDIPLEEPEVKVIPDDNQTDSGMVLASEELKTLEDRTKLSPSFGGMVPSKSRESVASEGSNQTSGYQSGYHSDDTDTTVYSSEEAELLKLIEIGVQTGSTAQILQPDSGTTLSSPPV
T2 sequence (P15056 whole entry V600E): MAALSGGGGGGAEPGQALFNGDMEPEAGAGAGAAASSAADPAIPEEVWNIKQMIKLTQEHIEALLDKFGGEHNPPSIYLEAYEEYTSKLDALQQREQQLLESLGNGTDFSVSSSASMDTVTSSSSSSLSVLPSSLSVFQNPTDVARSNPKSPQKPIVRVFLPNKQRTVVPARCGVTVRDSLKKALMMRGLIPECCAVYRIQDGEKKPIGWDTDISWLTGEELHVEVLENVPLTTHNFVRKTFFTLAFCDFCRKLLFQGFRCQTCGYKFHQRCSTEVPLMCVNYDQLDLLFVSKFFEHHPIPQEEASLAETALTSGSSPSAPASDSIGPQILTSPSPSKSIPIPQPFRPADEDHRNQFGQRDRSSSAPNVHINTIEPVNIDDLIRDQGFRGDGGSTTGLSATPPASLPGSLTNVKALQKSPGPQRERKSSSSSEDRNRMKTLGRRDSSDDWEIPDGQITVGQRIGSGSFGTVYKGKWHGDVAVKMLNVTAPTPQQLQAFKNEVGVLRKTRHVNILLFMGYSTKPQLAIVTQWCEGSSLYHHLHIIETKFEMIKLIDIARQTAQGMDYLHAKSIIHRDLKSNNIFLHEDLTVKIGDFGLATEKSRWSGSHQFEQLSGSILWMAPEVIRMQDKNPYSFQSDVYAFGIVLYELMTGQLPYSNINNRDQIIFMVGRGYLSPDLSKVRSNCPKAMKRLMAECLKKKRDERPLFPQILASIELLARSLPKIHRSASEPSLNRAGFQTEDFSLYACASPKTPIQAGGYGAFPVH

For `Oc1ccc(Br)cc1/C=N/n1c(-c2ccc(Cl)cc2)c[nH]c1=S` [Compound 4c, (E)-1-(5-Bromo-2-hydroxybenzylideneamino)-5-(4-chlorophenyl)-1H-imidazole-2(3H)-thione], the melting point is 191 to 193 °C. In series [1], this compound displayed a half-maximal inhibitory concentration (IC50) of 11.4 ± 0.8 µM. In series [2], this compound registered an IC50 of 44 ± 2.9 µM. Moreover, it took 9.96 ± 0.7 µM to reach half-maximal inhibition in series [3] (Homo sapiens, HCT-116, 24 h) (IC50).

With `CC(=O)O[C@@]12CO[C@@H]1C[C@H](O)[C@@]1(C)C(=O)[C@H](O)C3=C(C)[C@@H](OC(=O)[C@H](O)[C@@H](NC(=O)OC(C)(C)C)c4ccccc4)C[C@@](O)([C@@H](OC(=O)c4ccccc4)[C@H]21)C3(C)C` [DOC, Docetaxel, reference compound], the IC50 was 8.13 ± 0.5 µM in series [1]; 11.1 ± 0.7 µM in [2]; 14 ± 0.9 µM in [3] (Homo sapiens, HCT-116, 24 h); 33.17 ± 0.19 µM in [4].

On to `S=c1[nH]cc(-c2ccc(Cl)cc2)n1/N=C/c1ccccc1` [Compound 4a, (E)-1-(Benzylideneamino)-5-(4-chlorophenyl)-1H-imidazole-2(3H)-thione], for which the melting point lay within 121 to 123 °C. In addition, in series [1], the IC50 came to 61.8 ± 4.1 µM. In series [2], this compound returned an IC50 above 50 µM. In addition, the IC50 in series [3] (Homo sapiens, HCT-116, 24 h) stood at 20.6 ± 1.4 µM.

As for `CNC(=O)c1cc(Oc2ccc(NC(=O)Nc3ccc(Cl)c(C(F)(F)F)c3)cc2)ccn1` [SOR], the IC50 with MCF-7 cell line is 1.12 µM.

`COc1ccc(/C=N/n2c(-c3ccc(Cl)cc3)c[nH]c2=S)cc1` [Compound 4d, (E)-5-(4-Chlorophenyl)-1-(4-methoxybenzylideneamino)-1H-imidazole-2(3H)-thione]: the half-inhibitory concentration (IC50) in [1] is 4.09 ± 0.3 µM; in [2] it was 7.97 ± 0.5 µM; at human VEGFR-2, 0.721 µM; at B-Raf^V600E it was 38 µM; in [3] (Homo sapiens, HCT-116, 24 h) it was 28.9 ± 1.9 µM; in series [4] it was 44.06 ± 0.23 µM. For the same compound, the “percent of early apoptosis” value in the series with MCF-7 cells [5] was 6.12%. The “percent of late apoptosis” value in the series with MCF-7 cells [5] is reported as 10.23%. The “cytotoxic effect towards MCF-10A (in words)” value in series [4] is “weak cytotoxic effect”. Also, in the series on MCF-7 cells [6], the “percentage of cells at pre-G1 phase” value was 22.36%. Besides, the “percentage of cell population at the G2/M phase” value in the series with MCF-7 cells [6] is 35.55%.

As for `Oc1ccccc1/C=N/n1c(-c2ccc(Cl)cc2)c[nH]c1=S` [Compound 4b, (E)-5-(4-Chlorophenyl)-1-(2-hydroxybenzylideneamino)-1H-imidazole-2(3H)-thione], the melting point fell in the range of 128 to 130 °C. The compound further registered an IC50 in [1] above 50 µM. Moreover, in series [2], the midpoint of inhibition, the IC50, lay at 24.9 ± 1.6 µM. Further, half-maximal inhibition in [3] (Homo sapiens, HCT-116, 24 h) (IC50) was put at 23.5 ± 1.6 µM.

Turning to `CCOC(=O)/C(C#N)=C(\c1ccc(O)cc1)n1cc(O)n(/N=C/C=C/c2ccccc2)c1=S` [compound III], in the series on MCF-7 cell line, the IC50 was 3.26 µM.

`S=c1[nH]cc(-c2ccc(Cl)cc2)n1/N=C/C=C/c1ccccc1` [Compound 4e, 5-(4-Chlorophenyl)-1-((E)-((E)-3-phenylallylidene)amino)-1H-imidazole-2(3H)-thione] displayed a melting point of 139 to 141 °C. Besides, in series [1], half-maximal inhibition (IC50) required 17 ± 1.1 µM. This compound also showed an IC50 in [2] of 13.2 ± 0.9 µM. In series [3] (Homo sapiens, HCT-116, 24 h), this compound yielded an IC50 of 3.99 ± 0.3 µM.

As for `COc1ccc(-c2c[nH]c(=S)n2/N=C/c2ccccc2O)cc1` [Compound 5, (E)-1-(2-Hydroxybenzylideneamino)-5-(4-methoxyphenyl)-1H-imidazole-2(3H)-thione], the IC50 at human VEGFR-2 was 0.252 µM; on B-Raf^V600E it was 7.31 µM; in series [3], 3.99 ± 0.3 µM; in series [3] (Homo sapiens, HCT-116, 24 h) it was below 5 µM; in series [4], 27.8 ± 0.31 µM. The “percent of early apoptosis” value in the series with MCF-7 cells [5] is recorded as 2.66%. In addition, the “percent of late apoptosis” value with MCF-7 cells [5] stood at 13.64%. The “cytotoxic effect towards MCF-10A (in words)” value in [4] is reported as “weak cytotoxic effect”. The “percentage of cells at pre-G1 phase” value in the series with MCF-7 cells [6] turned out to be 22.81%. Besides, the “percentage of cell population at the G2/M phase” value in the series with MCF-7 cells [6] stood at 25.63%.

Take `CC(=O)Oc1ccccc1/C=N/n1c(-c2ccc(Cl)cc2)cn(C(C)=O)c1=S` [Compound 6, (E)-2-((3-Acetyl-5-(4-chlorophenyl)-2-thioxo-2,3-dihydro-1H-imidazol-1-ylimino)methyl)phenyl Acetate]: the melting point is 115 to 117 °C.

For orientation: melting point means the temperature of the solid-liquid transition. One may read the IC50 as the concentration that gives 50% inhibition.
